Test results taken from patent US9155778B2, “Tripeptides that down regulate the activity of plasma membrane transporters including sodium-D-glucose cotransporter SgIt1” (JULIUS-MAXMILLIANS-UNIVERSITAT WURZBURG, priority 2005, dated 2015).

Columns and labels:
hSGLT1 [1] = target: T1, hSGLT1 (Homo sapiens, UniProt P13866); assay: hSGLT1 expressed [14C]AMG uptake in Xenopus oocytes after injection of hRS1 protein or peptides; format: cell-based
T1 construct: expressed in transfected cells; host or cells: Xenopus laevis oocytes (cRNA injection)
T1 sequence (P13866 1-664): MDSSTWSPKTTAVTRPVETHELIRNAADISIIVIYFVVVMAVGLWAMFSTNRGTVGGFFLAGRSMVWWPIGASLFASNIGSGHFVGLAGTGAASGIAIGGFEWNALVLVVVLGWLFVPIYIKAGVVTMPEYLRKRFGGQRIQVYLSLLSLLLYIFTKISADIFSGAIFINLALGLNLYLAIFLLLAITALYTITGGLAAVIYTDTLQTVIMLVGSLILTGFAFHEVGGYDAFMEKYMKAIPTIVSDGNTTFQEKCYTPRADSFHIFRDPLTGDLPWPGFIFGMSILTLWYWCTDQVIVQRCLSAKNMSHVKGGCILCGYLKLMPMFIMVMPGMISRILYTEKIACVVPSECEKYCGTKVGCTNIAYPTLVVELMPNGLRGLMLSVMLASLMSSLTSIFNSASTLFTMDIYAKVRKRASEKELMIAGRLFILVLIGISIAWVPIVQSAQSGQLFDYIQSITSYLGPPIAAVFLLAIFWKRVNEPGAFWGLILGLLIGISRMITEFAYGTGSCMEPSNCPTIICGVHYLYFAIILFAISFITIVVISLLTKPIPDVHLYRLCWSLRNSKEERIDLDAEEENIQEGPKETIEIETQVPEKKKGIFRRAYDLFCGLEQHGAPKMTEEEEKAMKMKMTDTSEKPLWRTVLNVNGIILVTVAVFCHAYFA

hPEPT1 = target: T2, hPEPT1 (Homo sapiens, UniProt P46059); assay: Electrogenic peptide transport by hPEPT1 in oocytes, two-electrode voltage clamp; format: cell-based; conditions: pH 6.5
T2 construct: expressed in transfected cells; host or cells: Xenopus laevis oocytes (30 ng cRNA per oocyte)
T2 sequence (P46059 1-708): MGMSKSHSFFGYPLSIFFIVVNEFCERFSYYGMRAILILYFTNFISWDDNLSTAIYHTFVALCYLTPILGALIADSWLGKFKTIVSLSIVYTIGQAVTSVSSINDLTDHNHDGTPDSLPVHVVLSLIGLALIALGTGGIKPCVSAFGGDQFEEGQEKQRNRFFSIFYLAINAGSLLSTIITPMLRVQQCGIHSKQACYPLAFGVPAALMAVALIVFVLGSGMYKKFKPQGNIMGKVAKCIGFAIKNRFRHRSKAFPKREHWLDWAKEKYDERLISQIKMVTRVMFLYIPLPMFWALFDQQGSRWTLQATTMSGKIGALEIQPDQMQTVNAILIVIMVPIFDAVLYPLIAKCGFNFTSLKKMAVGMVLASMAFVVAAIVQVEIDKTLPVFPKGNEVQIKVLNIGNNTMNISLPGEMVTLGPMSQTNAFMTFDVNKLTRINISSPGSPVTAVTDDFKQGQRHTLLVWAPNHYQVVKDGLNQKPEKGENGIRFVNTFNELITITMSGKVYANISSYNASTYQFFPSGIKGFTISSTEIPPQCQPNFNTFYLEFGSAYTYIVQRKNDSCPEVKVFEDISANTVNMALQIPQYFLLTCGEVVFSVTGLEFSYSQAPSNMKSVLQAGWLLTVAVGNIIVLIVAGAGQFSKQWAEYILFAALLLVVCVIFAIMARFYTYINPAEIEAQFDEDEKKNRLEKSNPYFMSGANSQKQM
Method: (§1) The oocytes were incubated for three days at 16° C. in ORi buffer (in mM: 5 HEPES-Tris, pH 7.4, 100 NaCl, 3 KCl, 2 CaCl2, and 1 MgCl2). […] The oocytes were superfused with Ori buffer titrated to pH 6.5, the membrane potential of the oocytes was clamped to −40 mV, and inward current induced by superfusion with Ori buffer (pH 6.5) containing 5 mM of a control dipeptide or 5 mM of the tested tripeptide was measured. • (D) Expression and Purification of hRS1

hSGLT1 [2] = target: T1, hSGLT1; assay: [14C]AMG uptake in oocytes after incubation with tripeptide in the medium; format: cell-based; conditions: pH 6.5
Method: In a different experimental setup, oocytes were injected with SGLT1 cRNA (2.5 ng per oocyte) or with hSGLT1 cRNA (2.5 ng per oocyte) plus hPEPT1 cRNA (10 ng per oocyte) and the oocytes were incubated 3 days for expression. Thereafter the oocytes were incubated 30 min with Ori buffer adjusted to pH 6.5 or with Ori buffer adjusted to pH 6.5 containing 3 mM of the tested tripeptide. Thereafter oocytes were washed with Ori buffer (pH 7.4) and uptake of [^14C]AMG was measured. • (F) Measurements of [^14C]AMG Uptake
Uptake measurements were performed as described (Veyhl (2003), J. Membrane Biol., 196, 71-81). Oocytes were incubated for 15 min at room temperature in ORi buffer containing 50 μM [^14C]AMG without or with 100 μM of the SGLT1 inhibitor phlorizin. The uptake was blocked and oocytes were washed with ice cold Ori buffer containing 100 μM phlorizin. Radioactivity in the oocytes was measured by liquid scintillation counting.
Thereafter the oocytes were washed with neutral Ori buffer and the hSGLT1 expressed uptake of 50 μM [^14C]AMG was measured (FIG. 7). […] Incubation of oocytes expressing hSGLT1 plus hPEPT1 with PCQ had no effect on the expressed uptake of [^14C]AMG.

rbSGLT1 = target: T3, rbSGLT1 (Oryctolagus cuniculus, UniProt P11170); assay: rbSGLT1 expressed [14C]AMG uptake in oocytes after peptide injection; format: cell-based, rabbit; conditions: 50 nl containing 3 mM of each peptide, 30 min, 50 μM [14C]AMG; compared with hSGLT1
T3 construct: expressed in transfected cells; host or cells: Xenopus laevis oocytes (cRNA injection)
T3 sequence (P11170 1-662): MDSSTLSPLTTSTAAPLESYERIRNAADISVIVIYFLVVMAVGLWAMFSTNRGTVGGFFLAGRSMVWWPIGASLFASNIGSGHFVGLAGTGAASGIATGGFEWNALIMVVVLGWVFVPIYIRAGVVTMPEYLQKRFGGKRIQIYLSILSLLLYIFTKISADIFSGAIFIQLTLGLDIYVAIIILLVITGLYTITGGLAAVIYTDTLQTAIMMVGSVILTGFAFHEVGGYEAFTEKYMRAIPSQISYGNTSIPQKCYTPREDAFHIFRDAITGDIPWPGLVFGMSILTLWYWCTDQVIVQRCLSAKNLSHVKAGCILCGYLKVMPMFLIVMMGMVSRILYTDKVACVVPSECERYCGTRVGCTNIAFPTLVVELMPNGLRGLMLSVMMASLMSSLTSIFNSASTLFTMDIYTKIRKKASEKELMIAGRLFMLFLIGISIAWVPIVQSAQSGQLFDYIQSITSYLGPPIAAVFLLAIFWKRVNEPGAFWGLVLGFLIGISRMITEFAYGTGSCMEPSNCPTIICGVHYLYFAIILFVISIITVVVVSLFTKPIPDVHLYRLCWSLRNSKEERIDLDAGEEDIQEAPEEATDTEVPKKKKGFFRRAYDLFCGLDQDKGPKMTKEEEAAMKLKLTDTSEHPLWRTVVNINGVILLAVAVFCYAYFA
Method: as §1
To develop drugs on the basis of the identified peptides animal models are required.

hOCT2 = hOCT2 (Homo sapiens, UniProt O15244); conditions: intracellular AMG 0.1 mM, <0.01 mM or 10 mM
Chain of hOCT2 (O15244 whole entry): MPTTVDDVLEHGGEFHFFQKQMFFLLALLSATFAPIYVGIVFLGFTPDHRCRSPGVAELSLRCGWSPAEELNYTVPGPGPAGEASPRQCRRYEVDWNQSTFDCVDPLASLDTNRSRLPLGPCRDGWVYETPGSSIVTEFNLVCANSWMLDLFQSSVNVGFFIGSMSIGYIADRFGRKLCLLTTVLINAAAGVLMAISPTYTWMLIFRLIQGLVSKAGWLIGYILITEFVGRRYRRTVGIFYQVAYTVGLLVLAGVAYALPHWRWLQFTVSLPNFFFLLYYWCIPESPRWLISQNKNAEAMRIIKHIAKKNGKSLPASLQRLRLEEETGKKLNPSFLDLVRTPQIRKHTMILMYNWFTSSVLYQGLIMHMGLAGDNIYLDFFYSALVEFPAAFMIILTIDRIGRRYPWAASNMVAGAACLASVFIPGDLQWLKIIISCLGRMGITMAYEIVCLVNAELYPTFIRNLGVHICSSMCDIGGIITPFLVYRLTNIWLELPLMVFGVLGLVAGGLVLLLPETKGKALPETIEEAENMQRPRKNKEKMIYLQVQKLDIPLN
Method: Corresponding measurements were performed in the presence of intracellular AMG concentrations of 0.1 mM, <0.01 mM or 10 mM.

SGLT1 = SGLT1 (Mus musculus, UniProt Q8C3K6); conditions: 60 min pre-incubation, pH 6.5, 3 mM QCP, 0.1 mM D-glucose
Chain of SGLT1 (Q8C3K6 whole entry): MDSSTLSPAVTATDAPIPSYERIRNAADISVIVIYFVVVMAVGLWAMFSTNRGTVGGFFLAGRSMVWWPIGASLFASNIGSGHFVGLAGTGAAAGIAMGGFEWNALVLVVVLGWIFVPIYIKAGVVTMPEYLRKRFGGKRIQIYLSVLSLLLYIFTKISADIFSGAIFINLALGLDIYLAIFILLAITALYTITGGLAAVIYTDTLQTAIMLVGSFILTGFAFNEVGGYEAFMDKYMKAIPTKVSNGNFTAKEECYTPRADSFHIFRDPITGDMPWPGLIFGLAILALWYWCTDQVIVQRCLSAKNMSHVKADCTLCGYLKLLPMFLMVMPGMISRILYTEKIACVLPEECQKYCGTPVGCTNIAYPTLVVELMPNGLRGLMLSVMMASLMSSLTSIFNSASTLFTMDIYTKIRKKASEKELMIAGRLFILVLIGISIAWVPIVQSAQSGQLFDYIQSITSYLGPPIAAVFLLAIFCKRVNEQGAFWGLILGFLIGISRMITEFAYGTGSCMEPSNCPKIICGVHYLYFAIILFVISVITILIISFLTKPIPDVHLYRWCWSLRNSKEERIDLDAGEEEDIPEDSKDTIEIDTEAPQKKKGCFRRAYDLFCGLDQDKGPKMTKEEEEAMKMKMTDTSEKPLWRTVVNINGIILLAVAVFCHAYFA
Method: Walls of small intestinal mucosa from mice are inserted into an Ussing chamber and the SGLT1 mediated transepitehila currents are measured that are induced by addition of 0.1 mM D-glucose to the mucosal side. […] After washing glucose-induced transepithelial currents are measured.

[3] = tested on: sodium dependent amino acid transporters; conditions: 60 min, pH 6.5, 3 mM QCP; 10 mM amino acids
Method: Walls of small intestinal mucosa from mice are inserted into an Ussing chamber and transepitehial currents are measured that are induced by addition of 10 mM of various amino acids to the mucosal side.

[4] = drinking water pH 6.0 with 10 mM QCP, 2 months, standard chow or sugar low diet
Text: The body weight development with and without peptide treatment is compared over 2 months. […] In corresponding experiments, rabbits are to be employed.

## Glutamine-Cysteine-Proline [QCP]
hSGLT1 [1]
  inhibition of AMG uptake in the absence of BTXB: inhibited
  inhibition of AMG uptake in the presence of BTXB: no significant inhibition
  inhibition of glucose uptake expressed by hSGLT1: about 50%
  inhibition of hSGLT1 expressed AMG uptake: 35-40%
  inhibition of hSGLT1 expressed AMG uptake after stimulation of protein kinase C: not changed
  inhibition of hSGLT1 expressed AMG uptake with coexpressed dominant negative mutant of dynamin I: not changed
  inhibition of hSGLT1 expressed uptake of AMG after 3 h: 60%
  inhibition of hSGLT1 expressed uptake of AMG after 5 h: about 40%
  inhibition of hSGLT1 expressed uptake of AMG after 10 h: 20-30%
  inhibition of hSGLT1 in dependence of intracellular monosaccharide concentration: inhibits hSGLT1 at low or high concentrations of intracellular monosaccharides
  inhibitory effect on expression of hSGLT1 when the exocytotic pathway is blocked: could be prevented
  intracellular concentration of QCP giving 35-40% inhibition of hSGLT1 expressed glucose uptake: below 5 nM
hPEPT1
  inward current in control oocytes not injected with hPEP1-cRNA: no inward currents
  inward current induced in oocytes expressing hPEPT1: significant inward currents
hSGLT1 [2]
  effect on AMG uptake in oocytes in which hSGLT1 but not hPEPT1 was expressed: no effect
  inhibition of [14C]AMG uptake in oocytes expressing hSGLT1 plus hPEPT1: about 50%
rbSGLT1
  effect on glucose uptake expressed by rbSGLT1: same effect
hOCT2
  hOCT2 expressed [14C]TEA uptake after injection: appears not to be inhibited
SGLT1
  transepithelial glucose flux: inhibits transepithelial glucose flux
[3]
  transepithelial flux of amino acids: inhibits transepithelial flux of amino acids
[4]
  body weight after feeding: body weight is reduced
